Measurements as given in patent publication US11919895B2, “GPR183 antagonists for the treatment of pain” (Saint Louis University, priority 2019, dated 2024).
“Also recorded” adds a separate entry of the source. Where two headings read alike, the source gives them in different places.

Columns and labels:
[1] = system: GPR183 signaling in the spinal cord; assay: Example 2: cold allodynia induced by intrathecal GPR183 agonist (acetone test); format: in vivo, mice
Description: α,25-dihydroxycholesterol (7α,25-OHC) was purchased from Avanti Polar Lipids (Alabaster, AL) and dissolved in DMSO as a 2 mM stock. For injections 7α,25-OHC was diluted in saline. […] For intrathecal injections, NIBR189 was diluted in saline. Fluoronated 7α,25-OHC analog (SLUPP-1492) was synthesized as described previously (Deng et al., 2016) (detailed methods below and continued in Supplemental methods) and prepared as a 10 mM stock in DMSO. For injections SLUPP-1492 was diluted in saline. SAE compounds were purchased from Enamine (Monmouth Jet., NJ), all compounds were purified via normal phase chromatography and had purities of ≥95%. 100 mM Stock solutions of the SAE compounds were prepared in DMSO. For intrathecal injections, SAE compounds were diluted in saline. […]
Cold allodynia was measured as previously described using the acetone test (Xing et al., 2007; Yosten et al., 2020). Briefly, a small drop of acetone was applied to the hind paw of the animal using a flattened polyethylene tube and a syringe and the response to the cold stimulus was scored (0, no response; 1, brisk withdrawal or flick of the paw; 2. repeated flicking of the paw; 3. repeated flicking and licking of the paw). […] When mechanical and cold allodynia were measured on the same animal, mechano-allodynia was measured first with at least 15 minutes before testing cold allodynia.

GPR183 [2] = target: T1, GPR183 (Homo sapiens, UniProt P32249); assay: Calcium mobilization agonism assay in HL-60 cells; format: cell-based; set-up: host or cells: HL-60 (human leukemia) cells; settings: for EC80: calcium mobilization
Description: The Human leukemia (HL)-60 cells (American Type Culture Collection; Manassas, VA) were cultivated in RPMI 1640 media containing 10% heat-inactivated fetal bovine serum (FBS), 1% penicillin, and 1% GlutaMax. Cells were passaged every 3 days and maintained at a cell concentration below 1×10^6 to prevent differentiation.
(§1) Serial dilutions (5×) of compounds were prepared in 50:1 HBSS/HEPES.HL-60 cells (1×10^7) were incubated in 50:1 HBSS/HEPES containing 5 μM indo-1-AM (Thermo Fischer Scientific; Waltham. MA) and 0.05% pluronic acid for 0.5 hours at room temperature. Cells were centrifuged and washed with 50:1 HBSS/HEPES and resuspended in buffer. Cells were loaded onto a black 96-well Greiner Bio-One (Thermo Fischer Scientific; Waltham, MA) clear-bottom plate at 100,000 cells/well for a 5× dilution. For agonism assays, cells were immediately incubated for 15 minutes at 37° C. inside a FlexStation 3 Multimode Plate Reader (Molecular Devices; Sunnyvale, CA). Following the 15 minute incubation period, 5× of the compound was added and fluorescence was read for 150 seconds at 37° C. This method was utilized to determine the EC80 value of 7α,25·OHC (EC80=200 nM). For antagonism assays, before the addition of agonist, 5× of the antagonist was added and incubated for 15 minutes at 37° C. inside a FlexStation3. After allowing 15 minutes of equilibration, the determined EC80 of 7α,25-OHC (200 nM) was added, and fluorescence was read for 150 secs at 37° C. Calcium mobilization was determined ratiometrically using λex 350 nm and λem 405/490 nm. Dose-response data were normalized to a 0.5% DMSO vehicle control and the maximum response. From the normalized data, non-linear regression curves were then generated to calculate the appropriate EC50 and IC50 values. Each compound was run in triplicate (n=3).
Target sequence in this assay (P32249 whole entry): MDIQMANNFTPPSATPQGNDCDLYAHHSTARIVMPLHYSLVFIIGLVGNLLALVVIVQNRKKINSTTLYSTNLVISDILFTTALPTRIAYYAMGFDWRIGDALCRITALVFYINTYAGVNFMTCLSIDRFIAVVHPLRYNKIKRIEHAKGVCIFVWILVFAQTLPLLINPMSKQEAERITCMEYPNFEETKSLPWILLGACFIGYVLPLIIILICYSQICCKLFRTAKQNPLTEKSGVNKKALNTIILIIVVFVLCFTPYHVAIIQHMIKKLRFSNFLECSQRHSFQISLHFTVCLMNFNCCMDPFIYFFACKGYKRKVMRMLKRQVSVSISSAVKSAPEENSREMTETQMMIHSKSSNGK

[3] = system: GPR183 signaling in the spinal cord; assay: Example 2: mechano-allodynia induced by intrathecal GPR183 agonist; format: in vivo, mice
Description: (§2) α,25-dihydroxycholesterol (7α,25-OHC) was purchased from Avanti Polar Lipids (Alabaster, AL) and dissolved in DMSO as a 2 mM stock. For injections 7α,25-OHC was diluted in saline. […] For intrathecal injections, NIBR189 was diluted in saline. Fluoronated 7α,25-OHC analog (SLUPP-1492) was synthesized as described previously (Deng et al., 2016) (detailed methods below and continued in Supplemental methods) and prepared as a 10 mM stock in DMSO. For injections SLUPP-1492 was diluted in saline. SAE compounds were purchased from Enamine (Monmouth Jet., NJ), all compounds were purified via normal phase chromatography and had purities of ≥95%. 100 mM Stock solutions of the SAE compounds were prepared in DMSO. For intrathecal injections, SAE compounds were diluted in saline. Acute intrathecal (i.th.) injections of compounds were performed as described previously (Lu and Schmidtko, 2013), all compounds were administered intrathecally in a total volume of 5-10 μL.
(§3) Mechano-allodynia was measured as previously described (Yosten et al., 2020) using calibrated von Frey filaments (Stoelting; range in mice: 0.07-2.00 g; in rats: 2-26 g) using the Dixon up-and-down method (Dixon, 1991). Mechano-allodynia was defined as a significant (p<0.05) reduction in mechanical paw withdrawal threshold [PWT (g)] compared to baseline forces (before treatment).

GPR183 [4] = assay: Example 1: mechano-allodynia induced by i.th. GPR183 agonist; format: in vivo, rodents
GPR183 [5] = target: T1, GPR183; assay: Calcium mobilization in HL-60 cells after siRNA knock-down of GPR183; format: cell-based; set-up: host or cells: HL-60 (human leukemia) cells; settings: HL-60 cells treated with siRNA, FIG. 12E
Description: as §1, with “Dose-response data were normalized to a 0.5% DMSO vehicle control and the maximum response. From the normalized data, non-linear regression curves were then generated to calculate the appropriate EC50 and IC50 values. Each compound was run in triplicate (n=3).” left out
Target sequence in this assay (P32249 whole entry): as above
siRNA was purchased from Santa Cruz Biotechnology (Dallas, TX). HL-60 cells were centrifuged and counted with a hemocytometer to obtain 2.5×10^6 cells. […]

[6] = Ardecky et al., 2010; cited from earlier work
GPR183 [7] = target: T1, GPR183; settings: Benned-Jensen et al., 2013; read-out: IC50, GPR183 antagonist; cited from earlier work
Target sequence in this assay (P32249 whole entry, species assumed): as the sequence (P32249 whole entry) above

[8] = Ardecky et al., 2010; cited from earlier work; remark: listed apart in the source
[9] = system: CCI-induced mechano-allodynia; assay: Example 2: CCI-induced mechano-allodynia, intrathecal injection (von Frey); format: in vivo, mice
Description: as §2
CCI of the left sciatic nerve of mice and rats was performed under general anesthesia as previously described (Yosten et al., 2020). Briefly, animals were anesthetized with 2% isoflurane/O2, the left thigh was shaved and disinfected with Dermachlor solution. A small incision (1-1.5 cm) was made in the middle of the lateral aspect of the left thigh to expose the sciatic nerve. The nerve was loosely ligated around the diameter at 3 distinct sites (1 mm apart) using silk sutures (6.0, mice; 4.0, rats). The surgical site was closed with a skin clip and disinfected and treated with topical lidocaine (2%). Sham animals underwent the same procedure without nerve ligation. Peak allodynia developed by D7-D10 following CCI surgery.
as §3

[10] = system: CCI-induced neuropathic pain; assay: Example 1: intrathecal injection in CCI-induced neuropathic pain; format: in vivo, rodents; settings: for effect on behaviors on the contralateral side: intrathecal injection (5 μl), CCI; for reversal of CCI-induced neuropathic pain behaviors (allodynia) ipsilateral to injury: intrathecal injection at time of peak neuropathic pain (day 7)
GPR183 [11] = target: T1, GPR183; assay: Calcium mobilization antagonism assay (7α,25-OHC-induced) in HL-60 cells; format: cell-based; set-up: host or cells: HL-60 (human leukemia) cells; settings: 7α,25-OHC at EC80
Target sequence in this assay (P32249 whole entry): as above
Description: Serial dilutions (5×) of compounds were prepared in 50:1 HBSS/HEPES.HL-60 cells (1×10^7) were incubated in 50:1 HBSS/HEPES containing 5 μM indo-1-AM (Thermo Fischer Scientific; Waltham. MA) and 0.05% pluronic acid for 0.5 hours at room temperature. Cells were centrifuged and washed with 50:1 HBSS/HEPES and resuspended in buffer. Cells were loaded onto a black 96-well Greiner Bio-One (Thermo Fischer Scientific; Waltham, MA) clear-bottom plate at 100,000 cells/well for a 5× dilution. […] For antagonism assays, before the addition of agonist, 5× of the antagonist was added and incubated for 15 minutes at 37° C. inside a FlexStation3. After allowing 15 minutes of equilibration, the determined EC80 of 7α,25-OHC (200 nM) was added, and fluorescence was read for 150 secs at 37° C. Calcium mobilization was determined ratiometrically using λex 350 nm and λem 405/490 nm. Dose-response data were normalized to a 0.5% DMSO vehicle control and the maximum response. […]

[12] = acute i.th. on D7 post-surgery, male and female mice, SAE-1 800 nM, SAE-10 1.4 μM, SAE-14 2.9 μM

SMILES: C[C@H](CCCC(C)(C)O)[C@H]1CC[C@H]2[C@@H]3[C@H](O)C=C4C[C@@H](O)CC[C@]4(C)[C@H]3CC[C@]12C [7α,25-OHC, 7α,25-dihydroxycholesterol]
- induction of cold-allodynia ([1]; i.th., 7α,25-OHC 240 nM, SLUPP-1492 615 nM, mice): induced time-dependent development of cold-allodynia
- EC50 (GPR183 [2]): 42.4 nM
- calcium response in HL-60 cells that express GPR183 (GPR183 [2]; FIG. 1): very prominent calcium response
- EC80 (GPR183 [2]; HL-60 cells): 209 nM
- EC80 (GPR183 [2]; HL-60 cells, listed as 7α,25·OHC): 200 nM
- HillSlope (best-fit value) (GPR183 [2]; log(agonist) vs. normalized response, variable slope, HL-60 cells): 0.8624
- induction of mechano-allodynia ([3]; acute i.th., 7α,25-OHC 24, 72, 240 nM, SLUPP-1492 615 nM, male and female mice): induced a dose and time-dependent mechano-allodynia
- ED50, induction of mechano-allodynia ([3]; i.th. injection, mice, FIG. 14A): 74 nM
- ED50, induction of mechano-allodynia (GPR183 [4]; i.th. injection, n=6/dose, 3 doses): 0.031 ng
- 7α,25-OHC-induced calcium mobilization with GPR183-specific siRNA (GPR183 [5]): abolished

SMILES: O=C(/C=C/c1ccc(Cl)cc1)N1CCC2(CC1)CN(Cc1ccc(Cl)c(Cl)c1)C(=O)O2 [GSK682753A]
- plasma stability [6]: poor
- IC50 (GPR183 [7]): 200 nM
- microsomal stability [8]: poor

SMILES: COc1ccc(C(=O)N2CCN(C(=O)/C=C/c3ccc(Br)cc3)CC2)cc1 [NIBR189]
- reversal of CCI-induced mechano-allodynia ([9]; acute i.th. 0.7, 2.3, 23 μM on D7 post CCI, male mice): failed to reverse mechano-allodynia; also recorded: did not reverse
- effect on behaviors on the contralateral side [10]: No effects on behaviors on the contralateral side
- reversal of CCI-induced neuropathic pain behaviors (allodynia) ipsilateral to injury [10]: reversal of CCI-induced neuropathic pain behaviors ipsilateral to injury in a time- and dose-dependent manner

SMILES: COc1cc(C(C)NC(=O)Cc2c(C)nc(C)[nH]c2=O)cc(OC)c1OC (stereo not drawn) [SAE-1]
- reversal of CCI-induced mechano-allodynia [9, 12]: reversed CCI-induced mechanical allodynia in a time-dependent manner
- effect on behaviors on the contralateral side [10]: No effects on behaviors on the contralateral side
- reversal of CCI-induced neuropathic pain behaviors (allodynia) ipsilateral to injury [10]: reversal of CCI-induced neuropathic pain behaviors ipsilateral to injury in a time- and dose-dependent manner

SMILES: COc1cc2c(cc1OC)CN(C(=O)NOCc1ccccc1)CC2 [SAE-10]
- reversal of CCI-induced mechano-allodynia [9, 12]: reversed CCI-induced mechanical allodynia in a time-dependent manner

SMILES: O=C(CCc1ccc(F)c(F)c1)Nc1cc(F)cc(N2CCOCC2)c1 [SAE-14]
- prevention of cold-allodynia induced by 7α,25-OHC ([1]; i.th. pre-treatment 3 μM, 7α,25-OHC 480 nM, male and female mice): blocked these effects of 7α,25-OHC in a dose-dependent manner; also recorded: dose-dependently prevented
- reversal of CCI-induced mechano-allodynia [9, 12]: reversed CCI-induced mechanical allodynia in a time-dependent manner
- reversal of CCI-induced neuropathic pain behaviors (allodynia) ipsilateral to injury [10]: reversed allodynia in a time-dependent manner
- observable adverse side effects ([10]; intrathecal injection, rodents): no observable adverse side effects
- IC50 (GPR183 [11]): 28.5 nM
- prevention of mechano-allodynia induced by 7α,25-OHC ([3]; i.th. pre-treatment 0.3, 1, 3 μM, 7α,25-OHC 480 nM, male and female mice): blocked these effects of 7α,25-OHC in a dose-dependent manner; also recorded: dose-dependently prevented
- blockade of agonist-induced allodynia (GPR183 [4]; i.th. delivery, rodents): blocked
